Results published in patent publication US6974870B2, “Substituted 3-amino-thieno [2,3-b]pyridine-2-carboxylic acid amide compounds and processes for preparing and their uses” (Boehringer Ingelheim Phamaceuticals, Inc., priority 2002, dated 2005).

Molecular target: T1, human IKKβ (Homo sapiens, UniProt O14920)
T1 construct: FLAG (N)
T1 sequence (O14920 1-756): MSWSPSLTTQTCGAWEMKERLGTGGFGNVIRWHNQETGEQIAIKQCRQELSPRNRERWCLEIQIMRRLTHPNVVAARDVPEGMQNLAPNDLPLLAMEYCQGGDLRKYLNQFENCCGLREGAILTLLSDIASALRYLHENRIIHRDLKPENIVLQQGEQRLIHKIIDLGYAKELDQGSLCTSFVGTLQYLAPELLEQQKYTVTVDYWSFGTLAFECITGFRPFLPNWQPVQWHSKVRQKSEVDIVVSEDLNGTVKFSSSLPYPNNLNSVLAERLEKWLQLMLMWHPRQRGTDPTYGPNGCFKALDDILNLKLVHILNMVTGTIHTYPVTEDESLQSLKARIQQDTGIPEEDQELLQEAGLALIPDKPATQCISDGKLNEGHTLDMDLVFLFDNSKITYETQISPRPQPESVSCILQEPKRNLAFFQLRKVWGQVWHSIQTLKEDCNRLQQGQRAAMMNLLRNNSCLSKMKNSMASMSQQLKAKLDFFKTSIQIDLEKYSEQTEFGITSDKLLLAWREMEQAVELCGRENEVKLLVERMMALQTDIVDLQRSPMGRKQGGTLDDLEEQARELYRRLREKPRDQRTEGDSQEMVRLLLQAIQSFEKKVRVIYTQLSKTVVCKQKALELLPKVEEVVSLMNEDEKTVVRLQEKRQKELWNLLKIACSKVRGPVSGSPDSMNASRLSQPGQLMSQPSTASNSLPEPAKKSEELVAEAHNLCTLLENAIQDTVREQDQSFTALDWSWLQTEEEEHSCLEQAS
Assay: IKKβ kinase inhibition assay (phosphorylation of IκBα substrate, 33P-ATP)
Assay type: biochemical
Conditions: flag-tagged human IKKβ 0.9 μg/ml, GST-IκBα (1-54) 53 μg/ml, 250 nM ATP, 1 hour at 25° C.
Experimental: The inhibition of IKKα and IKKβ by the compounds of the present invention was determined with the following assay that measures the phosphorylation of the IκBα substrate by the respective kinases. The enzymes used in the assay were N-terminally flag-tagged versions of the human IKKβ or IKKα and the substrate was a GST fusion protein with IκBα (amino acids 1-54).
The reaction mixtures (60 μl) contained 20 mM HEPES pH 7.5, 10 mM MgCl2, 2 mM MnCl2, 100 mM NaCl, 100 μM Na3VO4, 20 mM β-glycerophosphate, 1 mM DTT, 2% DMSO, 250 nM ATP, 0.4 nM [^33P]ATP (specific activity, 3000 Ci/mmol), IκBα substrate, IKK enzyme and test compound. The reaction mixtures contained either 3.6 μg/ml IKKα and 245 μg/ml IκBα or 0.9 μg/ml IKKβ and 53 μg/ml IκBα.
Reactions were initiated by adding a solution of IκBα substrate and ATP to polypropylene plates containing IKK enzyme that was pre-incubated for 5 minutes with test compound. Then the reaction mixtures were incubated for 1 hour at 25° C., placed on ice and quenched by the addition of 150 μl 10% trichloroacetic acid and 5% disodium pyrophosphate. After mixing, the entire contents of the quenched reaction mixtures were transferred to a pre-wetted Packard UniFilter filtration plate, aspirated and washed 6 times with 250 μl of ddH2O using the Packard Filtermate Harvester. Filtration plates were then air dried, supplemented with 40 μl of Microscint 20 scintillation fluid and the ^33P-labeled reaction products were quantified using the Packard TopCount scintillation counter.
Compounds were tested in three-fold serial dilutions and inhibitor concentrations to achieve 50% inhibition of enzyme activity (i.e., IC50) were derived from dose-reponse curves using SAS software (SAS Institute, Cary N.C.). A non-linear regression analysis based on the Hill equation was applied to the percent inhibition versus concentration data. In all cases, compound concentrations were verified by HPLC.

Compound	IC50
CCCc1cc(N2CCC(NCC(O)C(=O)Nc3ccccc3)CC2)nc2sc(C(N)=O)c(N)c12 (stereo not shown) [3-Amino-6-[4-(2-hydroxy-2-phenylcarbamoyl-ethylamino)-piperidin-1-yl]-4-propyl-thieno[2,3-b] pyridine-2-carboxylic acid amide]	< 1000 nM
CCCc1cc(N2CCC(NCC(O)c3ccc(-c4ccccc4)cc3)CC2)nc2sc(C(N)=O)c(N)c12 (stereo not shown) [3-Amino-6-[4-(2-biphenyl-4-yl-2-hydroxy-ethylamino)-piperidin-1-yl]-4-propyl-thieno[2,3-b] pyridine-2-carboxylic acid amide]	< 1000 nM
CCCc1cc(N2CCC(NCC(O)COc3ccc(F)cc3)CC2)nc2sc(C(N)=O)c(N)c12 (stereo not shown) [3-Amino-6-{4-[3-(4-fluoro-phenoxy)-2-hydroxy-propylamino]-piperidin-1-yl}-4-propyl-thieno[2,3-b] pyridine-2-carboxylic acid amide]	< 1000 nM
CCCc1cc(N2CCC(NCC(=O)NCCO)CC2)nc2sc(C(N)=O)c(N)c12 [3-Amino-6-(4-{[(2-hydroxy-ethylcarbamoyl)-methyl]-amino}-piperidin-1-yl)-4-propyl-thieno[2,3-b] pyridine-2-carboxylic acid amide]	< 1000 nM
CCCc1cc(N2CCC(NCC(=O)Nc3cccc(C(N)=O)c3)CC2)nc2sc(C(N)=O)c(N)c12 [3-Amino-6-(4-{[(3-carbamoyl-phenylcarbamoyl)-methyl]-amino}-piperidin-1-yl)-4-propyl-thieno[2,3-b] pyridine-2-carboxylic acid amide]	< 1000 nM
CCCc1cc(N2CCC(NC[C@@H](O)COc3ccccc3)CC2)nc2sc(C(N)=O)c(N)c12 [3-Amino-6-[4-((R)-2-hydroxy-3-phenoxy-propylamino)-piperidin-1-yl]-4-propyl-thieno[2,3-b] pyridine-2-carboxylic acid amide]	< 1000 nM
CCCc1cc(N2CCC(NCC(O)c3cccc(-c4ccccn4)c3)CC2)nc2sc(C(N)=O)c(N)c12 (stereo not shown) [3-Amino-6-{4-[2-hydroxy-2-(3-pyridin-2-yl-phenyl)-ethylamino]-piperidin-1-yl}-4-propyl-thieno[2,3-b] pyridine-2-carboxylic acid amide]	< 1000 nM
CCCc1cc(N2CCC(NCC(O)C(=O)NCc3ccccc3)CC2)nc2sc(C(N)=O)c(N)c12 (stereo not shown) [3-Amino-6-[4-(2-benzylcarbamoyl-2-hydroxy-ethylamino)-piperidin-1-yl]-4-propyl-thieno[2,3-b] pyridine-2-carboxylic acid amide]	< 1000 nM
CCCc1cc(N2CCC(NCC(O)COc3cccc(C#N)c3)CC2)nc2sc(C(N)=O)c(N)c12 (stereo not shown) [3-Amino-6-{4-[3-(3-cyano-phenoxy)-2-hydroxy-propylamino]-piperidin-1-yl}-4-propyl-thieno[2,3-b] pyridine-2-carboxylic acid amide]	< 1000 nM
CCCc1cc(N2CCC(NCC(=O)Nc3cnc4ccccc4c3)CC2)nc2sc(C(N)=O)c(N)c12	< 1000 nM
CCCc1cc(N2CCC(NCCc3ccc(C(N)=O)cc3)CC2)nc2sc(C(N)=O)c(N)c12 [3-Amino-6-{4-[2-(4-carbamoyl-phenyl)-ethylamino]-piperidin-1-yl}-4-propyl-thieno[2,3-b] pyridine-2-carboxylic acid amide]	< 1000 nM
CCCc1cc(N2CCC(NCC(O)c3ccc(-c4ccccn4)cc3)CC2)nc2sc(C(N)=O)c(N)c12 (stereo not shown) [3-Amino-6-{4-[2-hydroxy-2-(4-pyridin-2-yl-phenyl)-ethylamino]-piperidin-1-yl}-4-propyl-thieno[2,3-b] pyridine-2-carboxylic acid amide]	< 1000 nM
NC(=O)c1sc2nc(N3CCC(NCC(O)c4ccc(-c5ccccn5)cc4)CC3)cc(C(F)(F)F)c2c1N (stereo not shown) [3-Amino-6-{4-[2-hydroxy-2-(4-pyridin-2-yl-phenyl)-ethylamino]-piperidin-1-yl}-4-trifluoromethyl-thieno[2,3-b]pyridine-2-carboxylic acid amide]	< 1000 nM
CCCc1cc(N2CCC(NCC(O)c3ccc(-c4ccncc4)cc3)CC2)nc2sc(C(N)=O)c(N)c12 (stereo not shown) [3-Amino-6-{4-[2-hydroxy-2-(4-pyridin-4-yl-phenyl)-ethylamino]-piperidin-1-yl}-4-propyl-thieno[2,3-b] pyridine-2-carboxylic acid amide]	< 1000 nM
CCCc1cc(N2CCC(NCC(=O)Nc3ccccc3C(N)=O)CC2)nc2sc(C(N)=O)c(N)c12 [3-Amino-6-(4-{[(2-carbamoyl-phenylcarbamoyl)-methyl]-amino}-piperidin-1-yl)-4-propyl-thieno[2,3-b] pyridine-2-carboxylic acid amide]	< 1000 nM
CCCc1cc(N2CCC(NC[C@H](O)COc3ccccc3)CC2)nc2sc(C(N)=O)c(N)c12 [3-Amino-6-[4-((S)-2-hydroxy-3-phenoxy-propylamino)-piperidin-1-yl]-4-propyl-thieno[2,3-b] pyridine-2-carboxylic acid amide]	< 1000 nM
CCCc1cc(N2CCC(NCC(O)COc3cccc4ccccc34)CC2)nc2sc(C(N)=O)c(N)c12 (stereo not shown) [3-Amino-6-{4-[2-hydroxy-3-(naphthalen-1-yloxy)-propylamino]-piperidin-1-yl}-4-propyl-thieno[2,3-b] pyridine-2-carboxylic acid amide]	< 1000 nM
CCCc1cc(N2CCC(NCC(O)CNc3ccccc3)CC2)nc2sc(C(N)=O)c(N)c12 (stereo not shown) [3-Amino-6-[4-(2-hydroxy-3-phenylamino-propylamino)-piperidin-1-yl]-4-propyl-thieno[2,3-b] pyridine-2-carboxylic acid amide]	< 1000 nM
NC(=O)c1sc2nc(N3CCC(NCCO)CC3)cc(C(F)(F)F)c2c1N [3-Amino-6-[4-(2-hydroxy-ethylamino)-piperidin-1-yl]-4-trifluoromethyl-thieno[2,3-b]pyridine-2-carboxylic acid amide]	< 1000 nM
NC(=O)c1sc2nc(N3CCC(NCC(O)c4ccc(-c5ccncc5)cc4)CC3)cc(C(F)(F)F)c2c1N (stereo not shown) [3-Amino-6-{4-[2-hydroxy-2-(4-pyridin-4-yl-phenyl)-ethylamino]-piperidin-1-yl}-4-trifluoromethyl-thieno[2,3-b]pyridine-2-carboxylic acid amide]	< 1000 nM
CCCc1cc(N2CCC(NCC(O)CCc3ccccc3)CC2)nc2sc(C(N)=O)c(N)c12 (stereo not shown) [3-Amino-6-[4-(2-hydroxy-4-phenyl-butylamino)-piperidin-1-yl]-4-propyl-thieno[2,3-b] pyridine-2-carboxylic acid amide]	< 1000 nM
CCCc1cc(N2CCC(NCC(O)c3ccc(-c4cnccn4)cc3)CC2)nc2sc(C(N)=O)c(N)c12 (stereo not shown) [3-Amino-6-{4-[2-hydroxy-2-(4-pyrazin-2-yl-phenyl)-ethylamino]-piperidin-1-yl}-4-propyl-thieno[2,3-b] pyridine-2-carboxylic acid amide]	< 1000 nM
CCCc1cc(N2CCC(NCC(O)CNc3cccc(C(N)=O)c3)CC2)nc2sc(C(N)=O)c(N)c12 (stereo not shown) [3-Amino-6-{4-[3-(3-carbamoyl-phenylamino)-2-hydroxy-propylamino]-piperidin-1-yl}-4-propyl-thieno[2,3-b] pyridine-2-carboxylic acid amide]	< 1000 nM
CCCc1cc(N2CCC(NCC(=O)NCC(N)=O)CC2)nc2sc(C(N)=O)c(N)c12 [3-Amino-6-(4-{[(carbamoylmethyl-carbamoyl)-methyl]-amino}-piperidin-1-yl)-4-propyl-thieno[2,3-b] pyridine-2-carboxylic acid amide]	< 1000 nM
CCCc1cc(N2CCC(NCC(O)COc3ccc(C#N)cc3)CC2)nc2sc(C(N)=O)c(N)c12 (stereo not shown) [3-Amino-6-{4-[3-(4-cyano-phenoxy)-2-hydroxy-propylamino]-piperidin-1-yl}-4-propyl-thieno[2,3-b] pyridine-2-carboxylic acid amide]	< 1000 nM
